{"source": "paper PMC9325671", "about": "“Targeting LIPA independent of its lipase activity is a therapeutic strategy in solid tumors via induction of endoplasmic reticulum stress” (Nature Cancer, 2022)", "biological_target": "T1, lysosomal acid lipase (LAL, LIPA) (Homo sapiens, UniProt P38571)", "T1 construct": "endogenous LAL in SUM-159 cells (CETSA); WT-LIPA reconstituted in LIPA KO cells (pulldown)", "T1 sequence (P38571 77-399)": "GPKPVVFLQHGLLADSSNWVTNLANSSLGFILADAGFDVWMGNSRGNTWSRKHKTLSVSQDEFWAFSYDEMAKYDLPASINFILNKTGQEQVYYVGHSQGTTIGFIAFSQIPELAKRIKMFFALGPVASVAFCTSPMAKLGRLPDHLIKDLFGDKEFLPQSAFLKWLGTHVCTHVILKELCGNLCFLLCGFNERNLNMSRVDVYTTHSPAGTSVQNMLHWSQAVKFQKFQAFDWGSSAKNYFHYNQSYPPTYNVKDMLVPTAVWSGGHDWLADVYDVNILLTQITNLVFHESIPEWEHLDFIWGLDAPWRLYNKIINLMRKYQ", "assay": "cellular thermal shift assay ([…] ERX-41) in SUM-159 cells; pulldown from lysates with biotinylated ERX-41", "assay_type": "cell-based", "data": [{"smiles": "CC(C)COc1cc(C(=O)Nc2ccc(C(=O)N[C@H]3CC[C@H](C)CC3)cc2OCC(C)C)ccc1NC(=O)c1ccc([N+](=O)[O-])c(OCCO)c1", "note": "[ERX-41]", "values": [{"measurement": "cellular thermal shift assay (10 uM ERX-41) in SUM-159 cells; pulldown from lysa", "value": "ERX-41 was able to stabilize LAL within the cell and shifted thermal sensitivity, suggesting that ERX-41 binds to LAL"}]}]}
